The assay has as its target T1, human pancreatic lipase (hPL) (Homo sapiens, UniProt P16233).
T1 construct: gene PNLIP
T1 sequence (P16233 17-465): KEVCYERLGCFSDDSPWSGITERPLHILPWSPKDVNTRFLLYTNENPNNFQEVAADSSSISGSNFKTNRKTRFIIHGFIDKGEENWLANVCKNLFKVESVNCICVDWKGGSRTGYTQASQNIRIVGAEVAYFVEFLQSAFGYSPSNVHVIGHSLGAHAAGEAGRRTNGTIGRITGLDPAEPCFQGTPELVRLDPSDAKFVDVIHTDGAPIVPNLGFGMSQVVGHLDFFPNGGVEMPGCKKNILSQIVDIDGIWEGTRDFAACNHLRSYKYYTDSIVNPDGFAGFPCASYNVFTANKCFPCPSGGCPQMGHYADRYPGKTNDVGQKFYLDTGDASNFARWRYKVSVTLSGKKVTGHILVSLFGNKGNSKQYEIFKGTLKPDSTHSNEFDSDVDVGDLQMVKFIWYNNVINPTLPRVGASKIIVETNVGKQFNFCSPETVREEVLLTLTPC
To be noted: 10 µM; inhibitor. The protocol: First, we evaluated the inhibitory effect of 94 natural products derived from herbs and 94 drugs on hPL. In our high-throughput screening system, 1 ug/mL hPL was used, and the final concentration of the 94 natural products derived from herbs and 94 drugs used was 10 μM. Other conditions were the same as in the selectivity experiments. […] RLE was incubated with hPL and various enzymes, such as hCES1A, hCES2A, CA, AchE, BchE, 5-HKE, lysozyme, trypsin, thrombin, α-CT, FAP, PREP, pepsin, α-amylase, plasmin, notum and hSA, in a 100 µL incubation mixture consisting of Tris-HCl (pH = 7.4, 25 mM), NaCl (150 mM), CaCl2 (1 mM) and porcine bile salt (0.1 mg/mL) at a concentration of 1.5 µg/mL. The reaction was initiated by adding RLE to the preincubated enzyme mixture at 37 °C, and metabolite formation was determined by measuring the fluorescence intensity of resorufin at 590 nm. In addition, several amino acids (IIe, His, Trp, Val, Leu, Tyr, Ala, Thr, Pro, Asp, Lys, Met, Cys, Ser, Phe, Gly, Glu and Gln), ions (Ni^2+, Ca^2+, Na^+, K^+, Cu^2+, Zn^2+, Mg^2+, NH4^+, Cu^+, Fe^2+ and CN^-) and GSH were measured. The concentration of these interfering factors was 5 μM. […] In this case, a visual high-throughput assay was established to screen hPL inhibitors, using RLE as a fluorogenic substrate in a 96-well microplate.

Where a name gives a salt, the structure may show the parent alone.

On to `NCCc1ccc(O)c(O)c1` [3-Hydroxytyramine hydrochloride], for which the “% of control remaining” value is recorded as 86.11%. `CCCCC1OC(=O)C2=C1CCC=C2` (stereo not drawn) [3-N-butyl-4,5-dihydrophthalide]: the “% of control remaining” value is reported as 75.65%. As for `CC(C)CCC[C@@H](C)[C@H]1CC[C@H]2[C@@H]3CCC4=CC(=O)CC[C@]4(C)[C@H]3CC[C@]12C` [4-Cholesten-3-one], the figure is 77.59%; as for `COc1ccc(-c2coc3cc(O)cc(O)c3c2=O)cc1` [5,7-Dihydrox-4'-methoxyisoflavone], 100.90%.

As to `COc1c2occc2cc2ccc(=O)oc12` [8-Methoxypsoralen], the “% of control remaining” value was determined as 90.65%. Under `C=CC(=O)Nc1cc(Nc2nccc(-c3cn(C)c4ccccc34)n2)c(OC)cc1N(C)CCN(C)C` [AZD-9291] stands 92.69%. Under `C=C1C(=O)O[C@@H]2C[C@@]3(C)CCC[C@H](C)C3=C[C@H]12` [Alantolactone] stands 61.11%; under `COc1cc(O)cc2c1C(=O)C[C@@H](c1ccccc1)O2` [Alpinetin], 107.78%.

As for `Cc1nnc2n1-c1ccc(Cl)cc1C(c1ccccc1)=NC2` [Alprazolam], the “% of control remaining” value was found to be 68.13%. Under `NCC[C@H](O)C(=O)N[C@@H]1C[C@H](N)[C@@H](O[C@H]2O[C@H](CN)[C@@H](O)[C@H](O)[C@H]2O)[C@H](O)[C@H]1O[C@H]1O[C@H](CO)[C@@H](O)[C@H](N)[C@H]1O` [Amikacin] stands 73.77%; under `N=C(N)NC(=O)c1nc(Cl)c(N)nc1N` [Amiloride hydrochloride], 109.84%; under `CCOC(=O)C1=C(COCCN)NC(C)=C(C(=O)OC)C1c1ccccc1Cl` (stereo not drawn) [Amlodipine], 85.85%. As for `C=C1CC[C@@H]2[C@](C)(CO)[C@H](O)CC[C@@]2(C)[C@@H]1C/C=C1/C(=O)OC[C@H]1O` [Andrographolide], the figure is 70.38%; as for `O=c1cc(-c2ccc(O)cc2)oc2cc(O)cc(O)c12` [Apigenin], 102.46%; as for `O=c1c(O[C@@H]2O[C@H](CO)[C@@H](O)[C@H](O)[C@H]2O)c(-c2ccc(O)cc2)oc2cc(O)cc(O)c12` [Astragalin], 107.88%. Under `COC(=O)N[C@H](C(=O)N[C@@H](Cc1ccccc1)[C@@H](O)CN(Cc1ccc(-c2ccccn2)cc1)NC(=O)[C@@H](NC(=O)OC)C(C)(C)C)C(C)(C)C` [Atazanavir] stands 79.92%; under `O=c1cc(-c2ccccc2)oc2cc(O)c(O)c(O)c12` [Baicalein], 48.80%.

Turning to `CN(C)C(=O)Oc1cc(OC(=O)N(C)C)cc(C(O)CNC(C)(C)C)c1` (stereo not drawn) [Bambuterol hydrochloride], the “% of control remaining” value is 93.23%. Under `CC(=O)Nc1ccc(OC(=O)c2ccccc2OC(C)=O)cc1` [Benorilate] stands 76.99%; under `O=C(/C=C/c1ccccc1)OCc1ccccc1` [Benzyl cinnamate], 74.62%. Consider `COc1cc2c3cc1Oc1c(OC)c(OC)cc4c1[C@@H](Cc1cccc(c1)Oc1ccc(c(O)c1)C[C@@H]3N(C)CC2)N(C)CC4` [Berbamine Hydrochloride], for which the “% of control remaining” value is 69.86%.

For the compound `COc1ccc2cc3[n+](cc2c1O)CCc1cc2c(cc1-3)OCO2` [Berberrubine], the “% of control remaining” value came to 86.09%. Regarding `COc1c2ccoc2cc2oc(=O)ccc12` [Bergapten], the “% of control remaining” value is recorded as 54.11%. Turning to `O=C(O)/C=C/c1ccc(O)c(O)c1` [Caffeic acid], the “% of control remaining” value came to 71.45%.

In the case of `COc1ccc(-c2coc3cc(O[C@@H]4O[C@H](CO)[C@@H](O)[C@H](O)[C@H]4O)ccc3c2=O)cc1O` [Calycosin 7-O-glucoside], the “% of control remaining” value is 84.02%. As for `NC(=O)N1c2ccccc2C=Cc2ccccc21` [Carbamazepine], the figure is 104.15%; as for `Cc1cc(=O)c2c(O)c3c(O[C@@H]4O[C@H](CO)[C@@H](O)[C@H](O)[C@H]4O)cccc3cc2o1` [Cassiaside], 81.67%; as for `CCC1=C[C@@H]2CN3CCc4c([nH]c5ccccc45)[C@@](C(=O)OC)(C2)[C@@H]13` [Catharanthine], 81.11%. As to `CC(C)(O/N=C(\C(=O)N[C@@H]1C(=O)N2C(C(=O)[O-])=C(C[n+]3ccccc3)CS[C@H]12)c1csc(N)n1)C(=O)O` [CeftazidiMe], the “% of control remaining” value was 118.41%. As to `CC1=C(O)C(=O)C=C2C1=CC=C1[C@@]2(C)CC[C@@]2(C)[C@@H]3C[C@](C)(C(=O)O)CC[C@]3(C)CC[C@]12C` [Celastrol], the “% of control remaining” value was 84.16%.

For `Cc1ccc(-c2cc(C(F)(F)F)nn2-c2ccc(S(N)(=O)=O)cc2)cc1` [Celecoxib], the “% of control remaining” value is 90.67%. On to `CC1=C(C(=O)O)N2C(=O)[C@@H](NC(=O)[C@H](N)c3ccccc3)[C@H]2SC1` [Cephalexin], for which the “% of control remaining” value is listed as 109.58%. As for `CN/C(=N\CCSCc1nc[nH]c1C)NC#N` [Cimetidine], the figure is 111.11%; as for `COC(=O)[C@H](c1ccccc1Cl)N1CCc2sccc2C1` [Clopidogrel sulfate], 90.49%. For the compound `CN1CCN(C2=Nc3cc(Cl)ccc3Nc3ccccc32)CC1` [Clozapine], the “% of control remaining” value is 97.86%. As to `C[C@@H](Oc1cc(-c2cnn(C3CCNCC3)c2)cnc1N)c1c(Cl)ccc(F)c1Cl` [Crizotinib], the “% of control remaining” value is given as 85.14%.

For the compound `COc1cc(/C=C/C(=O)CC(=O)/C=C/c2ccc(O)c(OC)c2)ccc1O` [Curcumin], the “% of control remaining” value is 75.83%. As for `O=P1(N(CCCl)CCCl)NCCCO1` (stereo not drawn) [Cyclophosphamide], the figure is 91.59%. Regarding `O=C(Cc1ccccc1F)C1CC1` [Cyclopropyl 2-fluorobenzyl ketone], the “% of control remaining” value is on record as 117.10%. As to `Cc1nc(Nc2ncc(C(=O)Nc3c(C)cccc3Cl)s2)cc(N2CCN(CCO)CC2)n1` [Dasatinib], the “% of control remaining” value is on record as 91.97%. Regarding `C=C1CC[C@@H]2[C@](C)(CO)[C@H](O)CC[C@@]2(C)[C@H]1C/C=C1\C=COC1=O` [Dehydroandrographolide], the “% of control remaining” value came to 89.55%. Under `COc1cc2c(cc1OC)-c1c(C)c3ccc(OC)c(OC)c3c[n+]1CC2` [Dehydrocorydaline] stands 123.69%. With `COc1ccc2c(c1)[C@]13CCCC[C@@H]1[C@H](C2)N(C)CC3` [Dextromethorphan], the “% of control remaining” value is given as 89.61%. Under `O=C(O)c1cc(-c2ccc(F)cc2F)ccc1O` [Diflunisal] stands 118.03%; under `C[C@H]1O[C@@H](O[C@H]2[C@@H](O)C[C@H](O[C@H]3[C@@H](O)C[C@H](O[C@H]4CC[C@@]5(C)[C@H](CC[C@@H]6[C@@H]5C[C@@H](O)[C@]5(C)[C@@H](C7=CC(=O)OC7)CC[C@]65O)C4)O[C@@H]3C)O[C@@H]2C)C[C@H](O)[C@@H]1O` [Digoxin], 99.51%; under `O=C1c2c(O)cc(O)cc2O[C@H](c2ccc(O)cc2)[C@H]1O` [Dihydrokaempferol], 109.31%.

As to `O=C1c2c(O)cc(O)cc2O[C@H](c2cc(O)c(O)c(O)c2)[C@H]1O` [Dihydromyricetin], the “% of control remaining” value is listed as 95.62%. Turning to `CN(C)CCOC(c1ccccc1)c1ccccc1` [Diphenhydramine Hydrochloride], the “% of control remaining” value is 88.58%.

Consider `Nc1ccccc1NC(=O)c1ccc(CNC(=O)OCc2cccnc2)cc1` [Entinostat], for which the “% of control remaining” value turned out to be 102.02%. On to `COc1ccc(-c2oc3c(CC=C(C)C)c(O[C@@H]4O[C@H](CO)[C@@H](O)[C@H](O)[C@H]4O)cc(O)c3c(=O)c2O[C@@H]2O[C@@H](C)[C@H](O)[C@@H](O)[C@H]2O[C@@H]2O[C@@H](C)[C@H](O)[C@@H](O)[C@H]2O)cc1` [Epmedin C], for which the “% of control remaining” value was found to be 81.94%. Take `O=c1ccc2cc(O)c(O)cc2o1` [Esculetin]: the “% of control remaining” value stood at 86.12%. As for `NC(=O)N1c2ccccc2C[C@H](O)c2ccccc21` [Eslicarbazepine], the figure is 103.44%; as for `CCc1cc(C(N)=S)ccn1` [Ethionamide], 91.71%; as for `C#C[C@]1(O)CC[C@H]2[C@@H]3CCC4=CC(=O)CC[C@@H]4[C@H]3C(=C)C[C@@]21CC` [Etonogestrel], 62.97%.

(Values after paper PMC9953885 (Biosensors, 2023).)
